Measurements taken from PMC11279551, “Pharmacokinetics and Enterohepatic Circulation of 2-(Quinoline-8-carboxamido)benzoic Acid (2-QBA) in Mice” (Pharmaceutics, 2024).
Read-outs that look alike come from different tables or passages of the source.

Assays:
[1] = Intestinal permeability in Ussing chamber; type: in vitro ADME, mice; settings: upper and lower ileum
Protocol: The small intestines were isolated from fasted mice under isoflurane anesthesia (1–3% with oxygen gas flow) and dissected into three parts, the jejunum, upper ileum, and lower ileum. […] The intestinal permeability of 2-QBA was assessed by adding 0.5 mL of HBSS containing 20 μM of 2-QBA on the donor side and 0.5 mL of fresh HBSS on the receiver side. Then, a 100 μL aliquot was withdrawn from the receiver side every 30 min for 2 h and an equal volume of pre-warmed fresh HBSS was added to replenish the lost volume. To analyze the 2-QBA, 100 μL aliquots were mixed with 4 volumes of IS solution (1 ng/mL berberine in acetonitrile). The mixture was vigorously vortexed for 5 min and then centrifuged at 13,000× g for 5 min. The supernatant was transferred to autosampler vials. Subsequently, a 3 μL aliquot was injected into the LC-MS/MS system.

[2] = Effect of activated charcoal (AC) on the pharmacokinetics of 2-QBA; type: in vivo; settings: mice; for AUC(0-t): read-out: AUC24h
Protocol: To elucidate the reabsorption mechanism of 2-QBA, a pharmacokinetic study of 2-QBA was conducted with activated charcoal (AC) administered PO. Male ICR mice (7 weeks old, 25–30 g) were fasted for 14–16 h prior to the administration of 2-QBA.
In total, […] were administered 2-QBA (1 mg/kg/3 mL) via the tail vein. Two hours after the 2-QBA dosing, AC (0.8 g/kg/5 mL in distilled water) or a vehicle (5 mL/kg distilled water) was administrated via oral gavage. Each group included ten mice who were randomly divided into two groups for sparse sampling. Blood collection was performed at 0.083, 0.5, 2, and 8 h from 5 mice and at 0.25, 1, 4, and 24 h from another 5 mice, as described previously. Four mice treated with either AC (0.8 g/kg) or the vehicle 2 h after the 2-QBA IV dosing (1 mg/kg) were returned to a metabolic cage to collect the urine and feces samples. The urine and feces samples were collected for 72 h.
Next, 2-QBA was administered PO (2 mg/kg/5 mL) with or without AC (0.8 g/kg in 3 mL of DW), which was administered via oral gavage 2 h after the 2-QBA dosing. Each group included eight mice who were randomly divided into two groups for sparse sampling. Blood collection was performed at 0.25, 0.75, 2, and 8 h from 4 mice and at 0.5, 1, 4, and 24 h from another 4 mice, as described previously. Four mice treated with either AC (0.8 g/kg) or vehicle 2 h after the 2-QBA PO dosing (2 mg/kg) were returned to a metabolic cage to collect the urine and feces samples. The urine and feces samples were collected for 72 h.
Aliquots of plasma samples (30 μL) were added to 120 μL of IS solution. The mixture was vigorously vortexed for 5 min and then centrifuged at 13,000× g for 5 min. The supernatant was transferred to autosampler vials. Subsequently, a 3 μL aliquot was injected into the LC-MS/MS system. Aliquots (30 μL) of urine and 10% feces homogenate samples were added to 60 μL of 150 mM sodium acetate buffer (pH 5.0) in the presence or absence of β-glucuronidase (900 unit) at 37 °C for 2 h. The reaction was quenched by adding four volumes of ice-cold IS solution. The mixture was vigorously vortexed for 5 min, followed by centrifugation at 13,000× g for 5 min. The supernatant was transferred to autosampler vials and subsequently a 3 μL aliquot was injected into the LC-MS/MS system.
(§1) WinNonlin 5.1 software (Pharsight Co., Mountain View, CA, USA) was used to calculate the pharmacokinetic parameters. AUClast and AUCinf indicate the areas under the plasma concentration curve from 0 h to the last sample and from 0 h to infinity, respectively; these were estimated using the linear trapezoidal method. T1/2 is the elimination half-life, which is estimated from the elimination coefficient (k) (i.e., 0.693/k), and MRT is the mean residence time. CL is the total clearance, which is calculated by dividing the dose by AUCinf. Vdss is the volume of the distribution at a steady state, calculated from MRTxCL. CLrenal and CLfeces are calculated by dividing the amount excreted in urine and feces by the AUCinf, respectively. CLmetabolism is calculated by subtracting CLrenal and CLfeces from CL. Cmax and Tmax are the maximum plasma concentration and time to reach Cmax, respectively. BA is calculated by dividing the dose-normalized AUCinf for PO administration (AUCinf/PO dose) by the dose-normalized AUCinf for IV administration (AUCinf/IV dose). All data are expressed as the mean ± standard deviation (SD).

[3] = Urinary and fecal excretion after IV or PO administration (metabolic cage); type: in vivo; settings: mice, IV 1.0 mg/kg
Protocol: We also investigated the excretion profile of 2-QBA after IV and PO administration at doses of 1 mg/kg for IV and 2 mg/kg for PO. After IV or PO administration of 2-QBA, the mice were returned to a metabolic cage to collect the urine and feces samples. The urine and feces samples were collected during the periods of 0–24 h, 24–48 h, 48–72 h, and 72–96 h. The urine ball was washed using equal volumes of methanol and added to the urine samples. The fecal samples were homogenized with 9 volumes of water to yield 10% fecal homogenates. The aliquots (30 μL) of urine and 10% fecal homogenate samples were stored at −80 °C until the analysis of the 2-QBA. For the analysis of the 2-QBA, 120 μL of IS solution was added to the 30 μL aliquot of urine and 10% fecal homogenate samples. The mixture was vigorously vortexed for 5 min and then centrifuged at 13,000× g for 5 min. The supernatant was transferred to autosampler vials. Subsequently, a 3 μL aliquot was injected into the LC-MS/MS system.
as §1, with “Cmax and Tmax are the maximum plasma concentration and time to reach Cmax, respectively.” left out

[4] = male, ICR, mouse, plasma, iv, 1 mg/kg, IV 1 mg/kg, AC (0.8 g/kg)
[5] = male, ICR, mouse, plasma, iv, 1 mg/kg, IV 1 mg/kg, Control
[6] = male, ICR, mouse, plasma, po, 2 mg/kg, PO 2 mg/kg, AC (0.8 g/kg)
[7] = male, ICR, mouse, plasma, po, 2 mg/kg, PO 2 mg/kg, Control

With O=C(O)c1ccccc1NC(=O)c1cccc2cccnc12 [2-QBA, 2-(quinoline-8-carboxamido)benzoic acid] the “absorptive permeability class compared with marker compounds” value ([1]; jejunum) was “moderate to high”, the Papp A→B at 2 h, 20 μM ([1]; mouse, 20 μM donor, HBSS pH 7.4, range over jejunum, read-out: absorptive permeability) was 4.46 to 10 ×10⁻⁶ cm/s and the AUC(0-t) ([2]; male, ICR, mouse, plasma, intravenous, 1 mg/kg, IV 1 mg/kg, AC (0.8 g/kg) PO 2 h after dosing) was 1180 ± 264 ng·h/mL. It also gave an AUC(0-inf) [2, 4] of 1210 ± 293 ng·h/mL, an MRT [2, 4] of 2.48 ± 2.56 h and a clearance [2, 4] of 14.5 ± 3.95 mL/min/kg. The half-life [2, 4] was 3.18 ± 2.52 h, the AUC(0-inf) [2, 5] was 1330 ± 422 ng·h/mL and the MRT [2, 5] was 2.88 ± 1.14 h. It also gave a clearance [2, 5] of 13.9 ± 5.41 mL/min/kg, a half-life [2, 5] of 3.88 ± 1.72 h and an AUC(0-t) ([2]; male, ICR, mouse, plasma, iv, 1 mg/kg, IV 1 mg/kg, Control (vehicle 2 h after dosing)) of 1270 ± 361 ng·h/mL. For the same compound, the AUC(0-inf) [2, 6] was 836 ± 209 ng·h/mL, the MRT [2, 6] was 7 ± 2.48 h and the half-life [2, 6] was 5.5 ± 2.24 h. The Cmax ([2]; male, ICR, mouse, plasma, po, 2 mg/kg, PO 2 mg/kg, AC (0.8 g/kg) 2 h after dosing) was 315 ± 106 ng/mL, the AUC(0-t) [2, 6] was 650 ± 305 ng·h/mL and the AUC(0-inf) [2, 7] was 2110 ± 608 ng·h/mL. The Cmax [2, 7] was 399 ± 90.7 ng/mL, the MRT [2, 7] was 8.49 ± 3.08 h and the half-life [2, 7] was 6.05 ± 2.04 h. It also gave an AUC(0-t) [2, 7] of 1930 ± 453 ng·h/mL, a Tmax ([2]; male, ICR, mouse, plasma, PO 2 mg/kg, Control) of 0.25 h and a BA ([2]; PO 2 mg/kg, AC (0.8 g/kg)) of 34.5%. For the same compound, the BA ([2]; PO 2 mg/kg, Control) was 79.8%, the CL renal ([3]; male, ICR, mouse, urine) was 5.47 ± 2.22 mL/min/kg and the “Amount excreted in feces for 96 h” value ([3]; parent form) was 9.30 ± 6.17 % of dose. For the same compound, the “Amount excreted in urine for 96 h” value ([3]; parent form) was 13.8 ± 4.24 % of dose.
